Columns and labels:
RXRα-LBD/L433D = experiment: Non-denaturing gel electrophoresis, L433D mutant; format: biochemical, human; details: K-80003 (20 μM), 3 h at 4 °C
Experimental: (§1) The human RXRα LBD (residues Thr223 to Thr462) cloned as an N-terminal histidine-tagged fusion protein in pET15b expression vector was expressed in Escherichia coli BL21 strain (Stratagene). After sonication, cell extract was incubated with the His60 Ni Superflow resin, and His-tagged RXRα-LBD-resin complexes were washed, eluted and concentrated to 5 mg ml^−1 for subsequent trails. For crystallization experiment, bovine thrombin (Sigma) was used to cleave the His tag from the purified His-tagged RXRα-LBD. The resulting His tag was removed on the Resource-Q column (GE) using 0.1–1 M NaCl gradient and the Tris-Cl pH 8 buffer. RXRα-LDB was further purified using gel filtration on a Superdex 200 2660 column (GE) pre-equilibrated with the 75 mM NaCl, 20 mM Tris-Cl buffer (pH 8).

RXRα-LBD/R316E = experiment: Non-denaturing gel electrophoresis, R316E mutant; format: biochemical, human; details: 9-cis-RA (0.5 μM) or K-80003 (20 μM), 3 h at 4 °C
Experimental: as §1

RXRα-LBD [1] = target: T1, RXRα-LBD (Homo sapiens, UniProt P19793); experiment: Gel filtration chromatography, RXRα-LBD; format: biochemical; details: HiLoad 16/600 Superdex 200 pg, 50 mM Tris-Cl (pH 7.4), 200 mM NaCl, 1 ml min^−1; 2 h incubation; one of three similar experiments
T1 construct: The human RXRα LBD (residues Thr223 to Thr462); made in house; host or cells: Escherichia coli BL21
T1 sequence (P19793 223-462): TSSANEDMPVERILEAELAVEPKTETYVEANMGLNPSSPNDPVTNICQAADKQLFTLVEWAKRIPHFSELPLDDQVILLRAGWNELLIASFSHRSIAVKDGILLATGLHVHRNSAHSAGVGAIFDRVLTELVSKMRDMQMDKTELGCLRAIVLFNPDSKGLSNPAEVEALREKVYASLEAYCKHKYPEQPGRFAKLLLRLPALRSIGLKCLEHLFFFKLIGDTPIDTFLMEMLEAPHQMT
Experimental: as §1

MCF-7/tRXRα tumour = experiment: MCF-7/tRXRα xenograft in nude mice, tumour growth; format: in vivo; details: K-80003 20 mg kg^−1 i.p. daily for 12 days, n=6 in each group
Experimental: For nude mice xenograft study, Myc-RXRα and Myc-tRXRα cloned into pcdna3.0 vector were stably transfected into MCF-7 cells, and the resulting stable clones and control clone (2 × 10^6 cells in 100 μl) were injected subcutaneously into nude mice (BALB/c, SPF grade, 16–18 g, 4–5-week old). For drug treatment, mice were intraperitoneally injected (i.p.) daily with K-80003 (20 mg kg^−1) diluted in Tween-80 or vehicle (tween-80). Body weight and tumour size were measured every 2 days. Mice were killed after 12-day drug treatment and the tumours removed for various assessments. For MMTV-PyMT transgenic mouse study, 4-week old female mice of a transgenic mouse on the FVB/N genetic background expressing the PyMT oncogene under the control of MMTV LTR promoter[40] were fed with diet containing with or without K-80003 (100 mg kg^−1) for 4 weeks. Estimation of tumour appearance was performed by palpation once every day. Tumour tissues of left thoracic mammary glands were excised after the treatment. Portion of tissues was used to prepare extracts for western blotting, while the rest was fixed in 4% phosphate-buffered paraformaldehyde, and used for immunohistochemical staining using anti-Ki67 antibody and immunostaining using Δ197 anti-RXRα antibody. All experimentations and animal usage were performed and approved by the Animal Care and Use Committee of Xiamen University.

RXRα = experiment: MMTV-PyMT tumours, RXRα immunostaining; format: in vivo, MMTV-PyMT mice; details: diet with K-80003 (100 mg kg^−1) for 4 weeks; Δ197 anti-RXRα antibody
Experimental: Cells mounted on glass slides or tumour tissue frozen sections (5-μm-thick) were washed with PBS and fixed in 4% paraformaldehyde (PFA) for 15 min and permeabilized with PBS containing 0.1% Triton X-100 for 15 min. Fixed cells or tumour tissues were blocked with 5 mg ml^−1 BSA in PBS for 30 min at room temperature, followed with incubation with primary antibodies for 3 h and secondary antibodies at room temperature for 1 h and co-stained with 4′6′-diamidino-2-phenylindole (DAPI) to visualize nuclei. The images were taken under an LSM-510 confocal laser scanning microscope system (Carl Zeiss).
For nude mice xenograft study, Myc-RXRα and Myc-tRXRα cloned into pcdna3.0 vector were stably transfected into MCF-7 cells, and the resulting stable clones and control clone (2 × 10^6 cells in 100 μl) were injected subcutaneously into nude mice (BALB/c, SPF grade, 16–18 g, 4–5-week old). For drug treatment, mice were intraperitoneally injected (i.p.) daily with K-80003 (20 mg kg^−1) diluted in Tween-80 or vehicle (tween-80). Body weight and tumour size were measured every 2 days. Mice were killed after 12-day drug treatment and the tumours removed for various assessments. […]

RXRα-LBD [2] = target: T1, RXRα-LBD; experiment: Crystal structure of RXRα-LBD complex; format: binding; details: crystal structure at 2.6 Å, PDB 5TBP
Experimental: as §1
Crystallization conditions were initially determined using the sitting-drop vapor-diffusion method and the crystallization screens Index and PEG-Ion solutions from Hampton Research. Final crystals were obtained by cocrystallizing the protein and the ligand. The protein-ligand complex contained 0.35 mM of RXRα-LBD, 0.5–0.7 mM of a ligand, 1% DMSO, 100 mM NaCl and 20 mM Tris-Cl buffer (pH 7.6). 0.2 μl of the protein-ligand complex was mixed with 0.2 μl of the well solution (20% […] and 0.2 M Na Acetate) and incubated at 20 °C. Crystals appeared in 5–10 days and grew into 0.2 × 0.1 × 0.1 mm prisms. The crystals were flash-cooled in mother liquor containing 1.5 mM of K-80003 and 20% glycerol as a cryoprotectant. Diffraction data was collected from the cryo-cooled crystal (100 K) on an in-house diffractometer (Rigaku X-ray generator with a rotating anode, VariMax optic and R-AXIS HTC detector). Data was processed using the programme iMOSFLM, part of the CCP4 suite. The b-factor of the data set according to the Wilson plot was 60 Å^2.
The crystal structures were determined using the molecular replacement program Phaser[76] with pdb entry 4N8R as an initial model. Coot[77] and the program suite Phenix[78] were used for the model rebuilding and refinement. […]

tRXRα = system: tRXRα; parameters: method as in PMID 20541701; details: cited from earlier work

Structure (SMILES): CC1=C(CC(=O)O)c2cc(F)ccc2/C1=C\c1ccc(C(C)C)cc1 [K-80003]
- effect on tetramerization of RXRα-LBD/L433D (RXRα-LBD/L433D): failed to bind to RXRα-LBD/L433D (Supplementary Fig. 5a) and promote its tetramerization
- effect on oligomeric state of RXRα-LBD/R316E (RXRα-LBD/R316E): exhibited mainly as a tetramer independent of the presence of either 9-cis-RA or K-80003
- oligomeric state of RXRα-LBD by gel filtration (RXRα-LBD [1]): mainly existed as a tetramer
- effect on tRXRα-promoted growth of MCF-7 tumour (MCF-7/tRXRα tumour): suppressed
- RXRα staining localization in PyMT tumours (RXRα): mainly found in the nucleus
- binding mode (RXRα-LBD [2]): ‘3-pronged’ binding mode
- molecules bound per tetramer (RXRα-LBD [2]): six molecules of K-80003-bound per tetramer
- molecules bound per interfacial cavity (RXRα-LBD [2]; A1/B2 or A2/B1 cavity): three molecules per A1/B2 or A2/B1 interfacial cavity
- binding to tRXRα (tRXRα): binds to tRXRα
